In ChEMBL document CHEMBL3988442, “University of Dundee, Small-Polar-MMV Screening Library” (2021):

System: Plasmodium falciparum
Experiment: Calibr Malaria Delayed Death Assay SOP
Type: functional, organism-based
Conditions: for IC50: Plasmodium falciparum

Row | Structure (SMILES) | pIC50 | IC50
1 | CCN1CC(c2ccccc2)CC2(CCN(Cc3ncc[nH]3)CC2)C1 (stereo not drawn) | 6.147 | 799 nM
2 | Cc1cccc(C)c1Nc1noc2c1CN(C(=O)c1ccn(C)n1)CC2 | 6.694 | 206 nM
3 | CC(C)(C)n1cc(C2=CCN(CCc3ccccn3)CC2)cn1 | 6.143 | 1030 nM
4 | COc1cccc(CN2CCCC(Nc3cccc(F)c3)C2)c1O (stereo not drawn) | 6.314 | 810 nM
5 | O=C(CN1CCCC(c2ccn[nH]2)C1)Nc1nc2c(s1)CCCC2 (stereo not drawn) | 6.624 | 248 nM
6 | Cn1ccnc1C(O)(CCNCc1ccc(Cl)o1)C(F)(F)F (stereo not drawn) | 5.844 | 1740 nM
7 | CN(CCc1cccc2ccccc12)Cc1nc(N)nc(N(C)C)n1 | 5.915 | 1240 nM
8 | CNc1nc(C)cc(NC2CCCN(C3Cc4ccccc4C3)C2)n1 (stereo not drawn) | 6.114 | 968 nM
9 | CC(O)c1cccc(Nc2nc(NCCO)c3ccccc3n2)c1 (stereo not drawn) | 6.601 | 220 nM
10 | Nc1nc2c(c(N3CCCC(c4nnc5ccccn45)C3)n1)CCNC2 (stereo not drawn) | 6.831 | 144 nM
11 | CC(O)CN1CCC(CNCc2cccc(C(F)(F)F)c2)CC1 (stereo not drawn) | 6.332 | 751 nM
12 | CC(NCC1CCN(CCO)CC1)c1ccc(F)c(Cl)c1 (stereo not drawn) | 6.184 | 758 nM
13 | Cc1cc(-n2cccn2)ccc1CN1CCOCC(CN(C)C)C1 (stereo not drawn) | 6.139 | 673 nM
14 | CN1[C@H](Cn2cccn2)C[C@@H]2CN(Cc3cccs3)CC[C@@H]21.O=C(O)C(F)(F)F.O=C(O)C(F)(F)F.O=C(O)C(F)(F)F | 6.221 | 593 nM
15 | O=C(CC1CCCC1)NCCNCc1cccc2c1OCCO2 | 6.128 | 938 nM
16 | CN1CCC(O)(CNCc2ccc(F)c(C(F)(F)F)c2)CC1 | 6.096 | 750 nM
17 | Cc1cc(S(=O)(=O)N2CCC(N3CCC(O)C3)CC2)c(Cl)cc1Cl (stereo not drawn) | 5.897 | 958 nM

Row | Structure (SMILES) | pIC50 | IC50
18 | Cl.Fc1cccc(F)c1Cn1c(C2CCCNC2)cc2cccnc21 (stereo not drawn) | 6.143 | 1050 nM
19 | CCOc1ccc(Br)cc1C1CCCCN1.Cl (stereo not drawn) | 6.053 | 737 nM
20 | COCCOc1ccccc1CNCC1COC2(CCCC2)O1 (stereo not drawn) | 6.238 | 727 nM
21 | Cc1ccc(CN2CCCC3(CCN(Cc4ccoc4)CC3)C2)cc1.O=C(O)C(F)(F)F.O=C(O)C(F)(F)F | 6.068 | 1110 nM
22 | CCc1ccc2nc(NCCCN(CCO)CCO)cc(C)c2c1 | 6.107 | 809 nM
23 | CC(NCCN1CCC(N(C)C)CC1)c1ccc(Cl)s1 (stereo not drawn) | 6.149 | 996 nM
24 | COc1cccc(CNCc2cccc(Cl)c2)c1O | 6.064 | 914 nM
25 | CN[C@@H](C)C(=O)N(Cc1cccc(C)c1)Cc1ccccc1OC | 6.428 | 316 nM
26 | Cc1ccccc1CNCC(O)c1ccc(OC(C)C)cc1 (stereo not drawn) | 6.206 | 637 nM
27 | Cl.OC1(c2ccc(F)cc2)CCN(Cc2ccccc2N2CCCC2)CC1 | 5.924 | 850 nM
28 | Cc1cc(C)n(C2CN(CC(O)c3cc(F)ccc3F)C2)n1 (stereo not drawn) | 6.757 | 223 nM
29 | Oc1ccc(Cl)cc1CNCc1ccccc1Cl | 6.1 | 616 nM
30 | NC(=O)c1cccc2nc([C@H]3CCN(Cc4ccccn4)C3)[nH]c12 | 7.592 | 27.5 nM
31 | O=C(c1ccc(F)c(Cl)c1)N1C[C@@H]2CC[C@H](C1)N(Cc1ccccc1)C2 | 5.941 | 758 nM
32 | CC1(C)CC(N(Cc2ccccc2)Cc2cccnc2)CC(C)(C)N1.O=C(O)CC(O)(CC(=O)O)C(=O)O | 5.927 | 602 nM
33 | CO[C@H]1CN(C(C)C)C[C@@H]1NC(=O)c1cc(-c2ccccc2O)n[nH]1 | 6.125 | 891 nM
34 | Cc1noc(C)c1CN1C[C@H]2CN(Cc3cccc(F)c3)C[C@H]2C1.O=C(O)C(F)(F)F.O=C(O)C(F)(F)F | 5.762 | 1220 nM
